This data set has as its system CCRIS mutagenicity, Ames/micronucleus/aberration tests. Briefly: CCRIS mutagenicity studies.
The mark [1] stands for this setting: Test System: AMES SALMONELLA TYPHIMURIUM, Strain/Indicator: TA98, Metabolic Activation: NONE, Method: STANDARD PLATE.
[2] abbreviates: Test System: AMES SALMONELLA TYPHIMURIUM, Strain/Indicator: TA100, Metabolic Activation: NONE, Method: STANDARD PLATE.
The mark [3] stands for this setting: Test System: AMES SALMONELLA TYPHIMURIUM, Strain/Indicator: TA97, Metabolic Activation: NONE, Method: PREINCUBATION
[4] abbreviates: Test System: AMES SALMONELLA TYPHIMURIUM, Strain/Indicator: TA97, Metabolic Activation: RAT, LIVER, S-9, AROCLOR 1254, Method: PREINCUBATION
Setting [5] is: Test System: AMES SALMONELLA TYPHIMURIUM, Strain/Indicator: TA102, Metabolic Activation: NONE, Method: PREINCUBATION
[6] abbreviates: Test System: AMES SALMONELLA TYPHIMURIUM, Strain/Indicator: TA102, Metabolic Activation: RAT, LIVER, S-9, AROCLOR 1254, Method: PREINCUBATION
[7] abbreviates: Test System: AMES SALMONELLA TYPHIMURIUM, Strain/Indicator: TA98, Metabolic Activation: RAT, LIVER, S-9, AROCLOR 1254, Method: STANDARD PLATE.
Setting [8] is: Test System: AMES SALMONELLA TYPHIMURIUM, Strain/Indicator: TA1535, Metabolic Activation: NONE, Method: STANDARD PLATE.
The mark [9] stands for this setting: Test System: AMES SALMONELLA TYPHIMURIUM, Strain/Indicator: TA1535, Metabolic Activation: RAT, LIVER, S-9, AROCLOR 1254, Method: STANDARD PLATE.
[10] abbreviates: Test System: AMES SALMONELLA TYPHIMURIUM, Strain/Indicator: TA1537, Metabolic Activation: NONE, Method: STANDARD PLATE.
[11] abbreviates: Test System: AMES SALMONELLA TYPHIMURIUM, Strain/Indicator: TA1537, Metabolic Activation: RAT, LIVER, S-9, AROCLOR 1254, Method: STANDARD PLATE.
Where [12] appears, read: Test System: AMES SALMONELLA TYPHIMURIUM, Strain/Indicator: TA1538, Metabolic Activation: NONE, Method: STANDARD PLATE.
[13] abbreviates: Test System: AMES SALMONELLA TYPHIMURIUM, Strain/Indicator: TA1538, Metabolic Activation: RAT, LIVER, S-9, AROCLOR 1254, Method: STANDARD PLATE.
Where [14] appears, read: Test System: AMES SALMONELLA TYPHIMURIUM, Strain/Indicator: TA100, Metabolic Activation: RAT, LIVER, S-9, AROCLOR 1254, Method: STANDARD PLATE.

Calls of active or inactive are those of the source. No rule for the calls is given here.

On to `C[C@H]1C=C(C=O)[C@H](C=O)[C@@H](O)[C@@H]2CC(C)(C)C[C@@H]21`, for which the mutagenic call under setting [1] was “inactive; negative”; the mutagenic call under setting [2] is “inactive; negative”; the mutagenic call (Test System: AMES SALMONELLA TYPHIMURIUM, Strain/Indicator: TA2637, Metabolic Activation: NONE, Method: STANDARD PLATE) is “inactive; negative”.

Take `O=c1ccn([C@@H]2O[C@H](COP(=O)(O)O)[C@@H](O)[C@H]2O)c(=O)[nH]1`: the mutagenic call was “inactive; negative” under setting [3], “inactive; negative” under setting [4], “inactive; negative” under setting [5] and “inactive; negative” under setting [6].

Consider `Nc1ccc(O)c2c1C(=O)c1c(O)ccc(N)c1C2=O`, for which the mutagenic call is, setting by setting: under setting [1], “active; positive”; under setting [7], “active; positive”; under setting [8], “inactive; negative”; under setting [9], “inactive; negative”; under setting [10], “active; positive”; under setting [11], “active; positive”. The mutagenic call is, setting by setting: under setting [12], “active; positive”; under setting [13], “active; positive”; (Test System: AMES SALMONELLA TYPHIMURIUM, Strain/Indicator: TA1978, Metabolic Activation: NONE, Method: STANDARD PLATE) “inactive; negative”; (Test System: AMES SALMONELLA TYPHIMURIUM, Strain/Indicator: TA1978, Metabolic Activation: RAT, LIVER, S-9, AROCLOR 1254, Method: STANDARD PLATE) “inactive; negative”.

In the case of `C=CC(=O)OCC(C)(C)COC(=O)C=C`, the mutagenic call by setting is: under setting [1], “inactive; negative”; under setting [7], “inactive; negative”; (Test System: AMES SALMONELLA TYPHIMURIUM, Strain/Indicator: TA98, Metabolic Activation: RAT, LIVER, S-9, SODIUM PHENOBARBITAL, Method: STANDARD PLATE) “inactive; negative”; under setting [2], “inactive; negative”; under setting [14], “inactive; negative”; (Test System: AMES SALMONELLA TYPHIMURIUM, Strain/Indicator: TA100, Metabolic Activation: RAT, LIVER, S-9, SODIUM PHENOBARBITAL, Method: STANDARD PLATE) “inactive; negative”. The mutagenic call under setting [8] is “inactive; negative”; the mutagenic call under setting [9] was “inactive; negative”; the mutagenic call (Test System: AMES SALMONELLA TYPHIMURIUM, Strain/Indicator: TA1535, Metabolic Activation: RAT, LIVER, S-9, SODIUM PHENOBARBITAL, Method: STANDARD PLATE) was “inactive; negative”; the mutagenic call under setting [10] is “inactive; negative”; the mutagenic call under setting [11] is “inactive; negative”; the mutagenic call (Test System: AMES SALMONELLA TYPHIMURIUM, Strain/Indicator: TA1537, Metabolic Activation: RAT, LIVER, S-9, SODIUM PHENOBARBITAL, Method: STANDARD PLATE) was “inactive; negative”. Further, the mutagenic call is, setting by setting: under setting [12], “inactive; negative”; under setting [13], “inactive; negative”; (Test System: AMES SALMONELLA TYPHIMURIUM, Strain/Indicator: TA1538, Metabolic Activation: RAT, LIVER, S-9, SODIUM PHENOBARBITAL, Method: STANDARD PLATE) “inactive; negative”.

Consider `Cc1occc(=O)c1O`, for which the mutagenic call was “active; positive” (End Point: IN VIVO MICRONUCLEUS, Test System: BONE MARROW POLYCHROMATIC ERYTHROCYTES, Species: MOUSE, Strain/Sex: DDY/MALE, Route: IP); “inactive; negative” (Test System: AMES SALMONELLA TYPHIMURIUM, Strain/Indicator: TA92, Metabolic Activation: NONE, Method: STANDARD PLATE); “inactive; negative” under setting [3]; “inactive; negative” under setting [4]; “inactive; negative” under setting [1]; “inactive; negative” under setting [2]. Further, the mutagenic call is, setting by setting: under setting [5], “inactive; negative”; under setting [6], “inactive; negative”; (Test System: AMES SALMONELLA TYPHIMURIUM, Strain/Indicator: TA104, Metabolic Activation: NONE, Method: STANDARD PLATE) “inactive; negative”.

Consider `C[C@]12CC[C@@H](OC(=O)/C=C/c3cccc(N(CCCl)CCCl)c3)C[C@@H]1CC[C@@H]1[C@@H]2CC[C@]2(C)NC(=O)CC[C@@H]12`, for which the mutagenic call is, setting by setting: under setting [1], “inactive; negative”; under setting [7], “inactive; negative”; under setting [2], “inactive; negative”; under setting [14], “inactive; negative”; under setting [8], “active; positive”; under setting [9], “active; positive”. In addition, the mutagenic call by setting is: under setting [10], “inactive; negative”; under setting [11], “inactive; negative”.

With `Cn1cnc2cc([N+](=O)[O-])ccc21`, the mutagenic call under setting [1] is “inactive; negative”.

In the case of `COC(=O)c1cc2c(c3c1ccc1c(OC)cccc13)OCO2`, the mutagenic call was “active; positive” under setting [1]; “active; positive” under setting [2]; “active; positive” (Test System: AMES SALMONELLA TYPHIMURIUM, Strain/Indicator: TA102, Metabolic Activation: NONE, Method: STANDARD PLATE); “active; positive” under setting [10]; “inactive; negative” (Test System: AMES SALMONELLA TYPHIMURIUM, Strain/Indicator: TM677/8-AZAGUANINE, Metabolic Activation: NONE, Method: SUSPENSION/PLATE).

As for `CNc1ccc2nc(C)cnc2c1C`, the mutagenic call was “inactive; negative” (Test System: AMES SALMONELLA TYPHIMURIUM, Strain/Indicator: TA98, Metabolic Activation: NONE, Method: PREINCUBATION); “active; positive” (Test System: AMES SALMONELLA TYPHIMURIUM, Strain/Indicator: TA98, Metabolic Activation: RAT, LIVER, S-9, PCB, Method: PREINCUBATION); “inactive; negative” (Test System: AMES SALMONELLA TYPHIMURIUM, Strain/Indicator: TA100, Metabolic Activation: NONE, Method: PREINCUBATION); “active; positive” (Test System: AMES SALMONELLA TYPHIMURIUM, Strain/Indicator: TA100, Metabolic Activation: RAT, LIVER, S-9, PCB, Method: PREINCUBATION).

Take `O[C@H]1C=Cc2c(ccc3c4c5c(cccc5cc23)C=C4)[C@@H]1O`: the mutagenic call under setting [1] is “inactive; negative”; the mutagenic call (Test System: AMES SALMONELLA TYPHIMURIUM, Strain/Indicator: TA98, Metabolic Activation: RAT, LIVER, S-9, AROCLOR 1254 (0.4, 0.8, 1.15 OR 1.5 MG/PLATE), Method: STANDARD PLATE) is “active; positive”; the mutagenic call under setting [7] is “active; positive”.

Consider `Cc1cnc2c(C)c(C)c3c(nc(N)n3C)c2n1`, for which the mutagenic call under setting [7] is “active; positive”.

The record behind these values is PubChem BioAssay AID1259407 (Chemical Carcinogenesis Research Information System (CCRIS), 2018).
